# Assay results as given in PMC5218480 (PLoS ONE, 2017).
# Test system: MV-4-11 cells
# Assay: Gene expression microarray analysis (Affymetrix PrimeView) and GSEA
# Assay type: cell-based, human
# Parameters: RFU PODN (11730768_x_at) / Fold change /veh PODN (11730768_x_at) / RFU LINC00158 (11744669_a_at) / Fold change /veh LINC00158 (11744669_a_at) / RFU DUSP10 (11751237_a_at) / Fold change /veh DUSP10 (11751237_a_at) / RFU ID3 (11757404_x_at) / Fold change /veh ID3 (11757404_x_at) / RFU PLEKHG5 (11737974_s_at) / Fold change /veh PLEKHG5 (11737974_s_at) / RFU LRRC4B (11730491_at) / Fold change /veh LRRC4B (11730491_at) / RFU GIMAP4 (11747438_a_at) / Fold change /veh GIMAP4 (11747438_a_at) / RFU KRT8 (11758183_x_at) / Fold change /veh KRT8 (11758183_x_at) / RFU CNN1 (11734310_a_at) / Fold change /veh CNN1 (11734310_a_at) / RFU VPS37D (11726825_at) / Fold change /veh VPS37D (11726825_at) / RFU C10orf10 (11716522_x_at) / Fold change /veh C10orf10 (11716522_x_at) / RFU KIR2DL2 /// KIR2DL4 /// KIR2DL5A /// KIR2DL5B /// KIR2DS1 /// KIR2DS2 /// KIR2DS3 /// KIR2DS4 /// KIR3DL3 /// KIR3DL3 /// KIR3DS1 (11738374_at) / Fold change /veh KIR2DL2 /// KIR2DL4 /// KIR2DL5A /// KIR2DL5B /// KIR2DS1 /// KIR2DS2 /// KIR2DS3 /// KIR2DS4 /// KIR3DL3 /// KIR3DL3 /// KIR3DS1 (11738374_at) / RFU C1QL1 (11718748_at) / Fold change /veh C1QL1 (11718748_at) / RFU TMPRSS4 (11747572_a_at) / Fold change /veh TMPRSS4 (11747572_a_at) / RFU HAMP (11756126_x_at) / Fold change /veh HAMP (11756126_x_at) / RFU RNFT2 (11725882_a_at) / Fold change /veh RNFT2 (11725882_a_at) / RFU NR4A2 (11747474_a_at) / Fold change /veh NR4A2 (11747474_a_at) / RFU ABCC12 (11746883_a_at) / Fold change /veh ABCC12 (11746883_a_at) / RFU TMEM136 (11760407_x_at) / Fold change /veh TMEM136 (11760407_x_at) / RFU CLDN22 /// WWC2 (11732394_at) / Fold change /veh CLDN22 /// WWC2 (11732394_at) / RFU HLA-DPB1 (11760878_x_at) / Fold change /veh HLA-DPB1 (11760878_x_at) / RFU SPINT1 (11716480_a_at) / Fold change /veh SPINT1 (11716480_a_at) / RFU GAP43 (11754022_s_at) / Fold change /veh GAP43 (11754022_s_at) / RFU A4GNT (11735810_at) / Fold change /veh A4GNT (11735810_at) / RFU PRB3 (11715151_x_at) / Fold change /veh PRB3 (11715151_x_at) / RFU TUBB4B (11761932_at) / Fold change /veh TUBB4B (11761932_at) / RFU CAPN14 (11732068_a_at) / Fold change /veh CAPN14 (11732068_a_at) / RFU TMCC2 (11721928_a_at) / Fold change /veh TMCC2 (11721928_a_at) / RFU IRGQ (11745062_a_at) / Fold change /veh IRGQ (11745062_a_at) / RFU FAM174B (11720279_a_at) / Fold change /veh FAM174B (11720279_a_at) / RFU TMPRSS4 (11748680_a_at) / Fold change /veh TMPRSS4 (11748680_a_at) / RFU FAM212B (11763350_a_at) / Fold change /veh FAM212B (11763350_a_at) / RFU PLEKHG5 (11743358_a_at) / Fold change /veh PLEKHG5 (11743358_a_at) / RFU ZSCAN30 (11745921_a_at) / Fold change /veh ZSCAN30 (11745921_a_at) / RFU CMKLR1 (11741424_a_at) / Fold change /veh CMKLR1 (11741424_a_at) / RFU LOC101060620 /// MAPK8IP1 (11723275_at) / Fold change /veh LOC101060620 /// MAPK8IP1 (11723275_at) / RFU SPTSSB (11747773_x_at) / Fold change /veh SPTSSB (11747773_x_at) / RFU PRSS12 (11739890_at) / Fold change /veh PRSS12 (11739890_at) / RFU BIN1 (11741810_x_at) / Fold change /veh BIN1 (11741810_x_at) / RFU WNT11 (11732464_a_at) / Fold change /veh WNT11 (11732464_a_at) / RFU C10orf10 (11716521_a_at) / Fold change /veh C10orf10 (11716521_a_at) / RFU C5orf56 (11738089_at) / Fold change /veh C5orf56 (11738089_at) / RFU CYB561 (11721691_x_at) / Fold change /veh CYB561 (11721691_x_at) / RFU ANKRD19P (11752326_a_at) / Fold change /veh ANKRD19P (11752326_a_at) / RFU OR2T12 /// OR2T33 /// OR2T8 (11738714_s_at) / Fold change /veh OR2T12 /// OR2T33 /// OR2T8 (11738714_s_at) / RFU VCAN (11748164_a_at) / Fold change /veh VCAN (11748164_a_at) / RFU JSRP1 (11732532_at) / Fold change /veh JSRP1 (11732532_at) / RFU KRTAP10-11 (11738290_x_at) / Fold change /veh KRTAP10-11 (11738290_x_at) / RFU MYO3A (11730013_a_at) / Fold change /veh MYO3A (11730013_a_at) / RFU EBF3 (11725865_a_at) / Fold change /veh EBF3 (11725865_a_at) / RFU CAMK2N1 (11719241_x_at) / Fold change /veh CAMK2N1 (11719241_x_at) / RFU C5orf56 (11738088_a_at) / Fold change /veh C5orf56 (11738088_a_at) / RFU OLFML3 (11715873_a_at) / Fold change /veh OLFML3 (11715873_a_at) / RFU LOC100653217 /// NTM (11731650_a_at) / Fold change /veh LOC100653217 /// NTM (11731650_a_at) / RFU MAPK11 (11762145_a_at) / Fold change /veh MAPK11 (11762145_a_at) / RFU FIZ1 (11724087_x_at) / Fold change /veh FIZ1 (11724087_x_at) / RFU OASL (11726364_x_at) / Fold change /veh OASL (11726364_x_at) / RFU SOX15 (11748057_x_at) / Fold change /veh SOX15 (11748057_x_at) / RFU CD79A (11719716_a_at) / Fold change /veh CD79A (11719716_a_at) / RFU HIST1H1D (11736915_at) / Fold change /veh HIST1H1D (11736915_at) / RFU CASKIN2 (11723855_a_at) / Fold change /veh CASKIN2 (11723855_a_at) / RFU LOC730098 (11760151_x_at) / Fold change /veh LOC730098 (11760151_x_at) / RFU OR4N2 (11742367_at) / Fold change /veh OR4N2 (11742367_at) / RFU PRRT2 (11749266_a_at) / Fold change /veh PRRT2 (11749266_a_at) / RFU SNX32 (11753110_a_at) / Fold change /veh SNX32 (11753110_a_at) / RFU CDHR5 (11726645_a_at) / Fold change /veh CDHR5 (11726645_a_at) / RFU RCAN1 (11760418_a_at) / Fold change /veh RCAN1 (11760418_a_at) / RFU FAM167A (11723789_a_at) / Fold change /veh FAM167A (11723789_a_at) / RFU FAM26E (11764081_at) / Fold change /veh FAM26E (11764081_at) / RFU ISYNA1 (11749810_s_at) / Fold change /veh ISYNA1 (11749810_s_at) / RFU ACY1 (11761880_at) / Fold change /veh ACY1 (11761880_at) / RFU 11764098_at / Fold change /veh 11764098_at / RFU SAMD14 (11745864_x_at) / Fold change /veh SAMD14 (11745864_x_at) / RFU NPB (11741838_a_at) / Fold change /veh NPB (11741838_a_at) / RFU TMPRSS6 (11731388_a_at) / Fold change /veh TMPRSS6 (11731388_a_at) / RFU KRTAP10-2 (11738614_at) / Fold change /veh KRTAP10-2 (11738614_at) / RFU ARHGAP8 /// PRR5-ARHGAP8 (11727945_x_at) / Fold change /veh ARHGAP8 /// PRR5-ARHGAP8 (11727945_x_at) / RFU KRTAP5-7 /// NADSYN1 (11734609_at) / Fold change /veh KRTAP5-7 /// NADSYN1 (11734609_at) / RFU RASL12 (11751679_a_at) / Fold change /veh RASL12 (11751679_a_at) / RFU CDKN2B (11736163_a_at) / Fold change /veh CDKN2B (11736163_a_at) / RFU PRF1 (11729649_at) / Fold change /veh PRF1 (11729649_at) / RFU, ZNF638 /// ZNF638-IT1 / Fold change vs veh, ZNF638 /// ZNF638-IT1 / RFU, PANK3 / Fold change vs veh, PANK3 / RFU, SH3YL1 / Fold change vs veh, SH3YL1 / RFU, ZEB2 / Fold change vs veh, ZEB2 / RFU, NRIP1 / Fold change vs veh, NRIP1 / RFU, PTTG1IP / Fold change vs veh, PTTG1IP / RFU, CAPN2 / Fold change vs veh, CAPN2 / RFU, MED14 / Fold change vs veh, MED14 / RFU, SNORA58 / Fold change vs veh, SNORA58 / RFU, C1orf63 / Fold change vs veh, C1orf63 / RFU, LRRFIP1 / Fold change vs veh, LRRFIP1 / RFU, NDUFAF7 / Fold change vs veh, NDUFAF7 / RFU, SLC12A2 / Fold change vs veh, SLC12A2 / RFU, IBTK / Fold change vs veh, IBTK / RFU, ESF1 / Fold change vs veh, ESF1 / Fold change vs veh, TMEM50B / RFU, TAOK1 / Fold change vs veh, TAOK1 / RFU, ACBD3 / Fold change vs veh, ACBD3 / RFU, TMA16 / Fold change vs veh, TMA16 / RFU, RWDD3 / Fold change vs veh, RWDD3 / RFU, BCAT1 / Fold change vs veh, BCAT1 / RFU, EDEM3 / Fold change vs veh, EDEM3 / RFU, TMEM33 / Fold change vs veh, TMEM33 / RFU, WDR75 / Fold change vs veh, WDR75 / RFU, AHCTF1 / Fold change vs veh, AHCTF1 / RFU, TFRC / Fold change vs veh, TFRC / RFU, ZDHHC17 / Fold change vs veh, ZDHHC17 / RFU, NOM1 / Fold change vs veh, NOM1 / RFU, ARL8B / Fold change vs veh, ARL8B / RFU, ZBTB11 / Fold change vs veh, ZBTB11 / RFU, TAMM41 / Fold change vs veh, TAMM41 / RFU, KIAA1704 /// LOC100996395 / Fold change vs veh, KIAA1704 /// LOC100996395 / RFU, ING1 / Fold change vs veh, ING1 / RFU, TRMT61B / Fold change vs veh, TRMT61B / RFU, FUBP3 / Fold change vs veh, FUBP3 / RFU, TP53 / Fold change vs veh, TP53 / RFU, TNKS2 / Fold change vs veh, TNKS2 / RFU, ZFP14 / Fold change vs veh, ZFP14 / RFU, ACTR2 / Fold change vs veh, ACTR2 / RFU, PPP3R1 / Fold change vs veh, PPP3R1 / RFU, PIK3R1 / Fold change vs veh, PIK3R1 / RFU, HNRNPA1 / Fold change vs veh, HNRNPA1 / RFU, RNF170 / Fold change vs veh, RNF170 / RFU, ZNF28 / Fold change vs veh, ZNF28 / RFU, RNGTT / Fold change vs veh, RNGTT / RFU, OGT / Fold change vs veh, OGT / RFU, BRD1 / Fold change vs veh, BRD1 / RFU, MARS / Fold change vs veh, MARS / RFU, ZNF655 / Fold change vs veh, ZNF655 / RFU, FAHD1 / Fold change vs veh, FAHD1 / RFU, BDP1 / Fold change vs veh, BDP1 / RFU, LRRCC1 / Fold change vs veh, LRRCC1 / RFU, ARID1A / Fold change vs veh, ARID1A / RFU, ZNF146 / Fold change vs veh, ZNF146 / RFU, ZNF330 / Fold change vs veh, ZNF330 / RFU, GPN3 / Fold change vs veh, GPN3 / RFU, C9orf123 / Fold change vs veh, C9orf123 / RFU, N4BP2L2 / Fold change vs veh, N4BP2L2 / RFU, ARFIP1 / Fold change vs veh, ARFIP1 / RFU, FAM179B / Fold change vs veh, FAM179B / RFU, BCL10 / Fold change vs veh, BCL10 / RFU, UHRF1BP1L / Fold change vs veh, UHRF1BP1L / RFU, BET1 / Fold change vs veh, BET1 / RFU, CNOT2 / Fold change vs veh, CNOT2 / RFU, ZNF268 / Fold change vs veh, ZNF268 / Fold change vs veh, ZNF507 / RFU, DGCR2 / Fold change vs veh, DGCR2 / RFU, WDSUB1 / Fold change vs veh, WDSUB1 / Fold change vs veh, HSP90B1 /// MIR3652 / RFU, ADSS / Fold change vs veh, ADSS / RFU, GK / Fold change vs veh, GK / RFU, ZNF148 / Fold change vs veh, ZNF148 / RFU, TAF9 / Fold change vs veh, TAF9 / RFU, SLC1A5 / Fold change vs veh, SLC1A5 / RFU, SLMO2 / Fold change vs veh, SLMO2 / RFU, ABCC4 / Fold change vs veh, ABCC4 / RFU, LOC101060439 /// RAP1B / Fold change vs veh, LOC101060439 /// RAP1B / RFU, RFX7 / Fold change vs veh, RFX7 / RFU, GTPBP10 / Fold change vs veh, GTPBP10 / RFU, CNEP1R1 / Fold change vs veh, CNEP1R1 / RFU, BIVM-ERCC5 /// ERCC5 / Fold change vs veh, BIVM-ERCC5 /// ERCC5 / RFU, ILF3 / Fold change vs veh, ILF3 / RFU 11762660_at / Fold change /veh 11762660_at / RFU VCAN (11757783_s_at) / Fold change /veh VCAN (11757783_s_at) / RFU DDX43 (11728927_at) / Fold change /veh DDX43 (11728927_at) / RFU KRT8 (11758188_x_at) / Fold change /veh KRT8 (11758188_x_at) / RFU NKD1 (11759106_at) / Fold change /veh NKD1 (11759106_at) / RFU SRD5A1 (11742802_a_at) / Fold change /veh SRD5A1 (11742802_a_at) / RFU TPSAB1 /// TPSB2 (11721975_s_at) / Fold change /veh TPSAB1 /// TPSB2 (11721975_s_at) / RFU GSTM3 (11746129_a_at) / Fold change /veh GSTM3 (11746129_a_at) / RFU IL23R (11737362_x_at) / Fold change /veh IL23R (11737362_x_at) / RFU TMEM51 (11727254_a_at) / Fold change /veh TMEM51 (11727254_a_at) / RFU PIWIL2 (11732686_x_at) / Fold change /veh PIWIL2 (11732686_x_at) / RFU ORM1 (11744905_x_at) / Fold change /veh ORM1 (11744905_x_at) / RFU CCDC152 (11743942_at) / Fold change /veh CCDC152 (11743942_at) / RFU ECM1 (11717891_a_at) / Fold change /veh ECM1 (11717891_a_at) / RFU IL23R (11748794_a_at) / Fold change /veh IL23R (11748794_a_at) / RFU TNFAIP8L3 (11732012_x_at) / Fold change /veh TNFAIP8L3 (11732012_x_at) / RFU MBOAT4 (11741988_at) / Fold change /veh MBOAT4 (11741988_at) / RFU 11764193_at / Fold change /veh 11764193_at / RFU TMEM53 (11763286_at) / Fold change /veh TMEM53 (11763286_at) / RFU MAGEB2 (11727129_at) / Fold change /veh MAGEB2 (11727129_at) / RFU TMEM200A (11744735_a_at) / Fold change /veh TMEM200A (11744735_a_at) / RFU CCDC152 (11751479_a_at) / Fold change /veh CCDC152 (11751479_a_at) / RFU FAM211A (11726209_a_at) / Fold change /veh FAM211A (11726209_a_at) / RFU RGS16 (11746705_a_at) / Fold change /veh RGS16 (11746705_a_at) / RFU VCAN (11755009_s_at) / Fold change /veh VCAN (11755009_s_at) / RFU RHOB (11743442_s_at) / Fold change /veh RHOB (11743442_s_at) / RFU RGS16 (11720943_a_at) / Fold change /veh RGS16 (11720943_a_at) / RFU RGS16 (11720944_at) / Fold change /veh RGS16 (11720944_at) / RFU, VPS4B / Fold change vs veh, VPS4B / RFU, CREB1 / Fold change vs veh, CREB1 / RFU, DNAJC13 / Fold change vs veh, DNAJC13 / RFU, GNAQ / Fold change vs veh, GNAQ / RFU, CDK5R1 / Fold change vs veh, CDK5R1 / RFU, ZRANB3 / Fold change vs veh, ZRANB3 / RFU, CUL4A / Fold change vs veh, CUL4A / RFU, CCNY / Fold change vs veh, CCNY / RFU, UFL1 / Fold change vs veh, UFL1 / RFU, COG3 / Fold change vs veh, COG3 / RFU, DIAPH2 / Fold change vs veh, DIAPH2 / RFU, SKA2 / Fold change vs veh, SKA2 / RFU, AFF3 / Fold change vs veh, AFF3 / RFU, LMF1 / Fold change vs veh, LMF1 / RFU, IPO11 / Fold change vs veh, IPO11 / RFU, DFFB / Fold change vs veh, DFFB / RFU, FOXP1 / Fold change vs veh, FOXP1 / RFU, CARD8 / Fold change vs veh, CARD8 / RFU, STRN3 / Fold change vs veh, STRN3 / RFU, ADK / Fold change vs veh, ADK / RFU, RASSF2 / Fold change vs veh, RASSF2 / RFU, WIPF1 / Fold change vs veh, WIPF1 / RFU, LARP1B / Fold change vs veh, LARP1B / RFU, RASA1 / Fold change vs veh, RASA1 / RFU, RB1 / Fold change vs veh, RB1 / RFU, PPFIA1 / Fold change vs veh, PPFIA1 / RFU, MAT2A / Fold change vs veh, MAT2A / RFU, CCT5 / Fold change vs veh, CCT5 / RFU, WDR92 / Fold change vs veh, WDR92 / RFU, CUX1 / Fold change vs veh, CUX1 / RFU, TTC7A / Fold change vs veh, TTC7A / RFU, TMEM135 / Fold change vs veh, TMEM135 / RFU, DEPTOR / Fold change vs veh, DEPTOR / RFU, CPM / Fold change vs veh, CPM / RFU, DNAJB6 / Fold change vs veh, DNAJB6 / RFU, CACNA2D3 / Fold change vs veh, CACNA2D3 / RFU, DTX4 / Fold change vs veh, DTX4 / RFU, TFCP2 / Fold change vs veh, TFCP2 / RFU, GMCL1 /// GMCL1P1 / Fold change vs veh, GMCL1 /// GMCL1P1 / RFU, AEBP2 / Fold change vs veh, AEBP2 / RFU, SNHG1 /// SNORD22 /// SNORD25 /// SNORD26 /// SNORD27 /// SNORD28 /// SNORD29 /// SNORD31 / Fold change vs veh, SNHG1 /// SNORD22 /// SNORD25 /// SNORD26 /// SNORD27 /// SNORD28 /// SNORD29 /// SNORD31 / Fold change (Aza/veh), C12orf56 (ProbeSet 11735607_a_at) / Fold change (ACY-1035/veh), C12orf56 (ProbeSet 11735607_a_at) / Fold change (Aza/veh), FGFR1OP (ProbeSet 11751329_s_at) / Fold change (ACY-1035/veh), FGFR1OP (ProbeSet 11751329_s_at) / Fold change (Aza/veh), VPS36 (ProbeSet 11739960_a_at) / Fold change (ACY-1035/veh), VPS36 (ProbeSet 11739960_a_at) / RFU SYPL1 (11715823_x_at) / Fold change /veh SYPL1 (11715823_x_at) / RFU IGFBP7 (11715501_s_at) / Fold change /veh IGFBP7 (11715501_s_at) / RFU REEP3 (11722064_at) / Fold change /veh REEP3 (11722064_at) / RFU IGLL1 (11728026_x_at) / Fold change /veh IGLL1 (11728026_x_at): dose or concentration left out as unconfirmed
# Conditions: MV-4-11 cells, 48 hours
smiles,measurement,value
Nc1ncn([C@@H]2O[C@H](CO)[C@@H](O)[C@H]2O)c(=O)n1 [azacitidine],RFU WNT11 (11732464_a_at),6.46 RFU
